Two compounds from ChEMBL document CHEMBL3044805, “A comparative study of the efficiency of several sources of induced resistance to powdery mildew (Blumeria graminis f. sp. tritici) in wheat under field conditions” (2009) can be followed below.

Assay [1] relates to Triticum aestivum. As to the kind of experiment: Induction of systemic acquired resistance against Blumeria graminis f. sp. tritici in Triticum aestivum (wheat) plants on Kanzler cultivar assessed as decrease in disease severity of powdery mildew in leaves […] (wheat) exposed to 0.3 M compound for 3 years by small-plot experiment relative to control. It counts as functional. More on the design: scale not given: the % may be the effect or the level left.

In assay [2] the test system is Triticum aestivum. As to the kind of experiment: Induction of systemic acquired resistance against Blumeria graminis f. sp. tritici in Triticum aestivum (wheat) plants on Kanzler cultivar assessed as decrease in disease severity of powdery mildew in leaves […] (wheat) exposed to 1.2 mM compound for 3 years by small-plot experiment relative to control. It counts as functional. More on the design: scale not given: the % may be the effect or the level left.

As for `C[N+](C)(C)CC(=O)O` [BETAINE], in the assay with Triticum aestivum [1], the Activity is 31.8%. For the compound `CSC(=O)c1cccc2nnsc12` [ACIBENZOLAR-S-METHYL], in the assay with Triticum aestivum [2], the Activity is reported as 14.5%.
